Key:
human cancer cell lines = test: e-Drug analysis: CCLE drug activity (activity area) in cell lines with missense mutations in a protein functional region (PFR) or whole protein versus cell lines without; format: cell-based
Text: The CCLE (Cancer Cell Line Encyclopedia; website broadinstitute.org/ccle; Barretina et al., Nature 483:603-607 (2012)) dataset, which includes the mutation profiles of 1,668 genes in 906 human cancer cell lines and drug activity data for 24 different anticancer compounds, was used in the present study. The analysis was focused on missense mutations, as truncating mutations can sometimes be misleading when performing the analysis in terms of functional regions. For example, when analyzing a protein that contains two different domains, if a truncating mutation happens in the first domain, it is not obvious whether the functional consequences of the mutation are caused by the fact that the first domain is altered or that the second domain is missing. […] From the original 42,603 genomic-point mutations in 1,668 genes, 156,817 protein missense mutations were obtained in 9,311 proteins.
CCLE contains data on the drug activity of 24 different compounds in 479 cell lines from 8-point dose-response curves. […] In our analysis only the activity area was used because, according to the CCLE, it captures simultaneously both variables of drug activity: its efficacy and its potency.
For the present study, protein functional regions were defined as domains or intrinsically disordered regions. […] To identify protein domains, annotated Pfam domains were retrieved from ENSEMBL for each protein isoform. A set of 1,300 potential domains identified by AIDA (ab initio domain assembly; Xu et al., Nucleic Acids Research 12:W308-W313 (2014) (Web Server issue); Internet site ffas.burnham.org/AIDA/), an algorithm based on remote homology, were also included. Foldindex (Prilusky et al., Bioinformatics 21(16):3435-8 (2005)) was used to predict intrinsically disordered regions for each protein. Those regions with a predicted unfolded score below −0.1 were included in the present study.
The different mutations of each cell line were mapped to these protein features, giving a total of 30,798 altered regions in 906 cell lines. These regions are divided into 19,918 Pfam domains and 10,880 intrinsically disordered regions. Note that the features can overlap, as the predictions were performed independently and there is no reason why, for example, an intrinsically unfolded region cannot overlap with (or even be located within) a Pfam domain. Note also that these numbers refer to PFRs in all known protein isoforms according to ENSEMBL v72.
The e-Drug analysis protocol looks for PFRs that, when mutated, correlate with drug activity of the different drugs. […] A Wilcoxon test was then performed comparing the drug activity of each compound in the two groups and kept those with a p-value below 0.01. Finally, for those gene regions associated to a certain drug, the activity of the cell lines mutated in the region of interest was compared to the activity of cell lines mutated in other regions of the gene. […] In this case, since the number of cell lines in both groups is lower and fewer tests were performed, a significance threshold of 0.05 instead of 0.01 was established. True positives were considered those PFR that passed both thresholds and that are not in proteins that show an association (p<0.01) with the same drug at the whole-protein level. Note that the analysis is performed independently for each PFR.
To overcome these limitations and decrease the number of false positives among the associations three different thresholds were required for an association to be considered positive (see

[1] = TCGA survival analysis of patients treated with CCLE drugs, grouped by mutations in resistance-associated PFRs; format: in vivo, human; details: for outcome of treated patients with mutations in PFRs associated with resistance vs mutations in other regions of the same proteins or no mutations: TCGA patients treated with Topoisomerase inhibitors Irinotecan and Topotecan (n=188), pooled, p<0.01; for prediction of patient outcome by mutation status of the whole proteins that contain the associated PFRs: TCGA patients treated with Topoisomerase inhibitors, whole-protein level
Text: Both clinical and mutation data for the 3,205 tumors described in the pan-cancer analysis of the TCGA were downloaded. Data from patients that had not been treated with any of the drugs included in the CCLE was then filtered out. Since most drugs included in the CCLE are still in under clinical research, there were only enough patients to analyze 2 different drugs: paclitaxel (n=778) and irinotecan (n=58). Each of these subsets of patients have then been classified in 3 groups: those that have a mutation in a PFR that, according to the analysis, increases resistance to the drug used to treat them; those with mutations in other regions of the same genes; and those with no mutations in these genes.
As a result very few patients in the TCGA dataset carry mutations in the former type of regions and were treated with the matching drug. The survival analysis was performed using the “Survival” package for R.

C#Cc1cccc(Nc2ncnc3cc(OCCOC)c(OCCOC)cc23)c1 [Erlotinib]
association of MSH6 mutations with the drug at protein level (human cancer cell lines; protein level analysis, MSH6 whole protein): potential association

CCc1c2c(nc3ccc(OC(=O)N4CCC(N5CCCCC5)CC4)cc13)-c1cc3c(c(=O)n1C2)COC(=O)[C@]3(O)CC [Irinotecan]
outcome of treated patients with mutations in PFRs associated with resistance vs mutations in other regions of the same proteins or no mutations [1]: worse outcomes | prediction of patient outcome by mutation status of the whole proteins that contain the associated PFRs ([1]; p>0.9): cannot predict the outcome

CS(=O)(=O)CCNCc1ccc(-c2ccc3ncnc(Nc4ccc(OCc5cccc(F)c5)c(Cl)c4)c3c2)o1 [Lapatinib]
drug activity associated with mutations in the connector domain (Pf05188) of MSH6 (human cancer cell lines; PFR level, missense mutations, MSH6 Pf05188): higher

C[C@@H](Oc1cc(-c2cnn(C3CCNCC3)c2)cnc1N)c1c(Cl)ccc(F)c1Cl [PF2341066]
sensitivity of cell lines with mutations in the ERBB3 receptor domain (human cancer cell lines; PFR level analysis, N-terminal EGF receptor domain of ERBB3): resistant | behavior of cell lines with mutations in any other PFR of ERBB3 (human cancer cell lines; PFR level analysis, other PFRs of ERBB3 such as the kinase domain): do not show any specific behavior | activity of the drug in cell lines with mutations in ERBB3 (human cancer cell lines; protein level analysis, ERBB3 whole protein): do not show any bias

CC(=O)O[C@H]1C(=O)[C@@]2(C)[C@H]([C@H](OC(=O)c3ccccc3)[C@]3(O)C[C@H](OC(=O)[C@H](O)[C@@H](NC(=O)c4ccccc4)c4ccccc4)C(C)=C1C3(C)C)[C@]1(OC(C)=O)CO[C@@H]1C[C@@H]2O [Paclitaxel]
outcome of treated patients with mutations in PFRs associated with increased resistance ([1]; TCGA patients treated with paclitaxel (n=778), p>0.9): no differences

Cn1c(Nc2ccc(C(F)(F)F)cc2)nc2cc(Oc3ccnc(-c4ncc(C(F)(F)F)[nH]4)c3)ccc21 [RAF265]
drug activity associated with mutations in the ATPase domain (Pf00488) of MSH6 (human cancer cell lines; PFR level, missense mutations, MSH6 Pf00488): higher

CC[C@@]1(O)C(=O)OCc2c1cc1n(c2=O)Cc2cc3c(CN(C)C)c(O)ccc3nc2-1 [Topotecan]
outcome of treated patients with mutations in PFRs associated with resistance vs mutations in other regions of the same proteins or no mutations [1]: worse outcomes | prediction of patient outcome by mutation status of the whole proteins that contain the associated PFRs ([1]; p>0.9): cannot predict the outcome

From patent publication US20160232293A1, “DRUG SENSITIVITY BIOMARKERS AND METHODS OF IDENTIFYING AND USING DRUG SENSITIVITY BIOMARKERS” (SANFORD-BURNHAM MEDICAL RESEARCH INSTITUTE, priority 2013, published 2016)
